Reference: ChEMBL document CHEMBL4196246, “Preussins with Inhibition of IL-6 Expression from Aspergillus flocculosus 16D-1, a Fungus Isolated from the Marine Sponge Phakellia fusca” (J Nat Prod, 2018)

Tests used:
[1] = test system: THP-1; test: Immunosuppressive activity in PMA-differentiated human THP1 cells assessed as inhibition of LPS-stimulated IL-6 production by flow cytometry; type: functional, cell-based
[2] = test system: Trichophyton mentagrophytes; test: Antifungal activity against Trichophyton mentagrophytes ATCC 4439 by broth macrodilution method; type: functional
[3] = test system: THP-1; test: Cytotoxicity against human THP1 cells after 72 hrs by CCK8 assay; type: functional, cell-based; conditions: THP-1, 72 h
[4] = test system: A549; test: Cytotoxicity against human A549 cells after 72 hrs by CCK8 assay; type: functional, cell-based; conditions: A549, 72 h
[5] = test system: HepG2; test: Cytotoxicity against human HepG2 cells after 72 hrs by CCK8 assay; type: functional, cell-based; conditions: HepG2, 72 h
[6] = test system: Trichophyton rubrum; test: Antifungal activity against Trichophyton rubrum ATCC 4438 measured after 4 to 7 days by broth macrodilution method; type: functional
[7] = test system: Candida albicans; test: Antifungal activity against Monilia albicans ATCC 10231 measured after 24 hrs by broth macrodilution method; type: functional; conditions: ATCC 10231, 24 h

Row | Compound | IC50 [1] [µM] | MIC [2] [µg/mL] | IC50 [3] [µM] | IC50 [4] [µM] | IC50 [5] [µM] | MIC [6] [µg/mL] | MIC [7] [µg/mL]
1 | CN1[C@H](CCCCCC(=O)O)C[C@H](O)[C@@H]1Cc1ccccc1 | 8.2 | > 50 | > 20 | > 20 | > 20 | > 50 | > 50
2 | CN1[C@H](CCCCCCC(=O)O)C[C@H](O)[C@@H]1Cc1ccccc1 | 9.9 | > 50 | > 20 | > 20 | > 20 | > 50 | > 50
3 | CC(C)=CCC/C(C)=C/Cc1cc(-c2coc3cc(O)ccc3c2=O)ccc1O | 0.67 | – | – | – | – | – | –
4 | CN1[C@H](CCC(=O)O)C[C@H](O)[C@@H]1Cc1ccccc1 | 21 | > 50 | > 20 | > 20 | > 20 | > 50 | > 50
5 | CN1[C@H](CCCCC(=O)O)C[C@H](O)[C@@H]1Cc1ccccc1 | 22 | > 50 | > 20 | > 20 | > 20 | > 50 | > 50
6 | CC[C@@H](O)CCCCCC[C@@H]1C[C@H](O)[C@H](Cc2ccccc2)N1C | 0.19 | > 50 | > 20 | > 20 | > 20 | > 50 | > 50
7 | C[C@@H](O)CCCCCCC[C@@H]1C[C@H](O)[C@H](Cc2ccccc2)N1C | 14 | > 50 | > 20 | > 20 | > 20 | > 50 | > 50
8 | CN1[C@H](CCCCCCCCC(=O)O)C[C@H](O)[C@@H]1Cc1ccccc1 | 0.11 | > 50 | > 20 | > 20 | > 20 | > 50 | > 50
9 | CCCC(O)CCCCC[C@@H]1C[C@H](O)[C@H](Cc2ccccc2)N1C (mixture of isomers) | 16 | > 50 | > 20 | > 20 | > 20 | > 50 | > 50
10 | CC(O)CCCCC[C@@H]1C[C@H](O)[C@H](Cc2ccccc2)N1C (mixture of isomers) | 2.3 | > 50 | > 20 | > 20 | > 20 | > 50 | > 50
